Assays:
[1] = tested on: MCF-7 and MDA-231 breast cancer cells; experiment: BrdU incorporation cell proliferation assay, MCF-7 and MDA-231; format: cell-based, human; details: MCF-7 and MDA-231 cells
Procedure: A determinant of cell division and viability, pre-requisites for angiogenesis, was assayed by BrdU incorporation in two breast cancer cell lines.

MCF-7 cells = experiment: Clonogenic assay, MCF-7 cells; format: cell-based, human; details: adriamycin-resistant MCF-7 cells, without drug
Procedure: Utilizing a clonogenic assay generated additional information concerning cell viability after drug-resistant cells were exposed to siRNA and chemotherapeutics. […] Taxol or Vincristine was added at IC10 or IC50 concentrations determined from MTT experiments for MCF-7 cells. […] The cells were further incubated for an additional 7 days. At the end of the incubation, the cells were stained with addition of a 0.5% Methylene Blue solution in 50% ethanol for 15 min. at RT. The staining solution was then removed and plates were dried overnight. The plates were scanned and the stained colonies were solubilized in 0.1% SDS. The absorbance of the resulting solution was determined by spectrophotometry at 660 nm.

α-enolase = experiment: Western blot of α-enolase protein expression after siRNA transfection; format: cell-based, human; details: for reduction of α-enolase expression: A549 cells; for decrease of levels of expression of α-enolase: MDA-MB-435 cells
Procedure: Western blot analysis utilizing anti-α-enolase antibodies was performed on MOLT4 cell extracts fractionated on SDS-PAGE (FIG. 3). Cells extract were prepared according to the protocol detailed in Example 1. […] Resolved proteins were electrophoretically transferred onto nitrocellulose membranes (Hybond, Amercham Pharmacia Biotech) for 1 hour. […] After blocking the membranes with 5% non-fat milk in 1×PBS overnight at 4° C., all antibody-binding reactions were performed in 5% non-fat milk in 1×PBS for 2 hours at room temperature for primary antibodies and for 1 hour for secondary antibodies coupled to HRP. The signal was detected by the Supersignal west Pico chemiluminescent substrate (Pierce, Rockford, Ill., USA). Two polyclonal antibodies against α-enolase were used: a goat antibody against human α-enolase (Santa Cruz Biotechology, Inc., Santa Cruz, Calif.); rabbit polyclonal antibody against human α-enolase (NNE) (MorphoSys AG, Munich, Del.). Membranes were subsequently blotted with anti-GAPDH (Novus Biologicals, Inc., Littleton, Colo.) or anti-prohibitin mouse monoclonal antibody (Lab Vision Corp., Fremont, Calif.) as controls for protein loading. To establish the importance of α-enolase to the expression of the drug-resistant phenotype in cell lines, α-enolase expression was silenced using RNAi. Briefly, the following siRNA duplexes targeting the human α-enolase mRNA were designed and purchased either from Ambion (Austin, Tex.) or Invitrogen (Carlsbad, Calif.). […] [NT] ID NO: 2) targeting the mRNA sequence corresponding to nucleotides […] from the start of the transcript (Ref Seq ID number: NM-001428). […] In another tube, […] of Oligofectamine reagent (Invitrogen, Carlsbad, Calif.) is mixed with […] of Opti-MEM. The two solutions are combined and mixed gently by inversion and incubated for 20 min. at RT. […] The next day the transfected cells were trypsinized and seeded in 6 or 96-well plates and further incubated for the indicated amount of time (assay dependent) before further analysis.

MDA-435 cells [2] = experiment: cells; format: cell-based, human
Procedure: Similar tests utilizing α-enolase siRNA were performed on MDA-435 breast adenocarcinoma cells. Chemosensitivity to various drugs was determined for the MDA-435 cells as described above.

SW-480 cells = experiment: cells; format: cell-based, human
Procedure: The colorectal adenocarcinoma cell line SW-480 was treated with α-enolase-directed siRNA using the procedures described above.

H460 cells = experiment: MTT cytotoxicity assay, H460 cells transfected with α-enolase siRNA; format: cell-based, human
Procedure: To establish the effectiveness of α-enolase silencing on other cancer cell types, H460 non-small cell lung cancer cells were challenged with a chemotherapeutic drug, MTT cytotoxicity assays were carried out and survival curves plotted as shown in FIG. 17.

A549 cells = experiment: MTT cytotoxicity assay, A549 cells transfected with α-enolase siRNA; details: A549 cells
Procedure: Small interfering RNA transfected cells were seeded in triplicate into 96-well plates at 5×10^3 cells/well 48 hrs post-transfection. The cells were incubated for an additional 16-24 hrs before they were exposed to increasing concentrations of cytotoxic drugs. […] Appropriate dilutions were made in the respective media for each cell line. Following addition of drugs, incubation was continued for an additional 72 hrs. Twenty-five ml of MTT dye (5 mg/ml) were added into each well and the plate was further incubated at 37° C. for 4 hrs. The dye was solubilized with 10% Triton X-100, 0.01 N HCl and further incubated at 37° C. in the dark for 30 min. Cell viability was determined by measure of absorption at 570 nm in a Wallac multiwell plate reader (PerkinElmer, Inc., Boston, Mass.). The averages of triplicate wells were plotted using the Prism software (GraphPad Software, Inc., San Diego, Calif.).
To investigate if α-enolase is broadly involved in mediating drug resistance to microtubule targeting agents, non-small cell lung cancer cell lines A549 and H460, respectively, were transfected with α-enolase siRNA and enolase expression and viability were assessed.

[3] = tested on: Detroit skin, Hfl fetal lung, and MRC-5 fetal lung fibroblast cell lines; experiment: MTT survival of normal fibroblast cells after α-enolase silencing; format: cell-based; details: relative to mock or control siRNA
Procedure: Detroit skin, Hfl fetal lung, and MRC-5 fetal lung fibroblast cell lines were treated with α-enolase-targeted siRNA as described in Example 5.

MDA-435 cells [4] = experiment: Annexin-V FITC staining, MDA-435; format: cell-based, human
Procedure: (§1) The effect of Eno-1 siRNA silencing on tumor cell growth was even more dramatic in the MDA-435 breast cancer cells, where the viability in cells that were transfected with Eno-1 siRNA dropped to only about 17% of the control level (FIG. 40). In these cells the levels of silencing of α-enolase were also quite high, reaching 14% of the α-enolase levels present in the control transfected cells 6 days post-transfection (FIG. 41).
Apoptotic cells were measured following incubation with siRNAs. This assay was performed to determine the number of cells that were now susceptible to chemotherapeutic drugs. Cells transfected with siRNA were seeded in Lab-Tek 16-well chamber slides (Electron Microscopy Sciences, Hatfield, Pa.) at 10^4 cells/well 48 hrs post-transfection. Apoptosis was determined 16 hours later by annexin-V staining using the Annexin-V FLUOS kit (Roche, Ltd., Basel, CH) following the manufacturer's instructions. Slides were observed under a fluorescence microscope and images were taken using an Olympus digital camera and the Q-Capture software (QImaging, Burnaby, BC, CA).

[5] = tested on: MDA-435 breast cancer cells; experiment: BrdU incorporation DNA synthesis, MDA-435; format: cell-based, human; details: MDA-435 cells
Source text: as §1

Substance: α-enolase siRNA: siRNA duplex targeting human α-enolase mRNA; sense 5′-GGCUGUUGAGCACAUCAAUtt-3′ (SEQ ID NO: 1), antisense SEQ ID NO: 2; Ambion (antisense AUUGAUGUGCUCAACAGCC; bought from Ambion, sense has tt overhang, further chemistry not given here)
- decrease in cell proliferation rates (BrdU) [1]: 40-50%
- viability less than that of siRNA untreated cells (MCF-7 cells): 65%
- reduction of α-enolase expression (α-enolase; six days post-transfection): 90%
- reduction of α-enolase expression (α-enolase; three days post-transfection): 77%
- α-enolase expression (α-enolase; Detroit fibroblast cells, three days of treatment): significant down-regulation
- α-enolase level relative to control transfected cells (α-enolase; MDA-435 cells, 6 days post-transfection): 14%
- decrease of levels of expression of α-enolase (α-enolase; six days): 92%
- decrease of levels of expression of α-enolase (α-enolase; three days): 67%
- decrease of α-enolase protein expression (α-enolase; variety of cell lines): 50-80%
- cell viability, of the control level (MDA-435 cells [2]): about 17%
- decrease in cell viability (SW-480 cells): 50%
- cell viability after siRNA alone (H460 cells): less viable
- cell viability after siRNA alone (A549 cells): decreased the viability
- survival of normal fibroblast cells [3]: no effect on survival
- apoptosis by annexin-V FITC staining (MDA-435 cells [4]): increase in apoptosis
- decrease in DNA synthesis [5]: 50%

Reference: US20070077583A1, “Alpha enolase-directed diagnostics and therapeutics for cancer and chemotherapeutic drug resistance” (Aurelium BioPharma, Inc., priority 2005, published 2007)
